Molecular target: T1, CYP2A6 (Homo sapiens, UniProt P11509)
T1 construct: from tissue; host or cells: ultrapooled human liver microsomes
T1 sequence (P11509 1-494): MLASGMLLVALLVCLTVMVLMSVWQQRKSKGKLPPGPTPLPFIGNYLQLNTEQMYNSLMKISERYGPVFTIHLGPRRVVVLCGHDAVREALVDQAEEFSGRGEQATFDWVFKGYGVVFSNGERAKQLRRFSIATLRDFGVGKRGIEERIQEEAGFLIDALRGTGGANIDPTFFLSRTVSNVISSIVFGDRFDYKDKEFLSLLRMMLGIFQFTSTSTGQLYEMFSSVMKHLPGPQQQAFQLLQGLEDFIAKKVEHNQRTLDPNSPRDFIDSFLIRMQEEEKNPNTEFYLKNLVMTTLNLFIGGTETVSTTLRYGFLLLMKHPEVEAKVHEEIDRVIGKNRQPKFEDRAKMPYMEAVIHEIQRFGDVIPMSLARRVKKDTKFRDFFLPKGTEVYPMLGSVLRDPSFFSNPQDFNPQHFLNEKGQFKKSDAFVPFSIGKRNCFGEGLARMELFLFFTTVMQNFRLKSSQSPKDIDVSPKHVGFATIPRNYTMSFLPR
Assay: CYP2A6-mediated coumarin 7-hydroxylation in pooled human liver microsomes
Format: in vitro ADME
Conditions: up to 50 µM, without 30-min preincubation
Protocol: The inhibitory potential (IC50 values) of EAM-2201 on CYP1A2, CYP2A6, CYP2C8, CYP2C9, CYP2C19, CYP2D6 and CYP3A4 were evaluated using ultrapooled human liver microsomes and a cocktail of seven CYP substrates followed by LC-tandem mass spectrometry (LC-MS/MS) as previously described. […] Aliquots (5 µL) of the diluted supernatants were analyzed using LC-MS/MS. […]
The metabolites formed from CYP substrates were simultaneously quantified using our previously described LC-MS/MS method. […] Quantification was performed by selected reaction monitoring (SRM) of the [M + H]^+ ion and the related product ion for each metabolite: acetaminophen, 152.1 > 110.3; N-desethylamodiaquine, 328.1 > 283.0; 7-hydroxycoumarin, 163.0 > 107.2; 4-hydroxybupropion, 256.1 > 238.0; 4′-hydroxydiclofenac, 312.0 > 231.1; 4′-hydroxy-mephenytoin, 235.1 > 150.1; 1′-hydroxybufuralol, 278.1 > 186.1; 1′-hydroxymidazolam, 341.9 > 324.0; ^13C2,^15N-acetaminophen, 155.1 > 111.2; and d9-1′-hydroxybufuralol, 287.2 > 187.0. […]

CCc1ccc(C(=O)c2cn(CCCCCF)c3ccccc23)c2ccccc12 [EAM-2201, (4-ethyl-1-naphthalenyl)[1-(5-fluoropentyl)-1H-indol-3-yl]-methanone]
inhibition of CYP2A6-mediated coumarin 7-hydroxylation: negligibly inhibited
